According to patent US20230364070A1, “PYRROLO[3,2-C]PYRIDIN-4-ONE DERIVATIVES USEFUL IN THE TREATMENT OF CANCER” (Scorpion Therapeutics, Inc., priority 2020, published 2023):

How the values were obtained:
Type in all cases: cell-based
[1] = target: T1, Ba/F3 cells with EGFR exon 20 ASV Ins V769_D770 (Homo sapiens, UniProt P00533, INS769ASV); experiment: EGFR activity: Ba/F3 cell viability (CellTiter-Glo, 72 h), EGFR exon 20 ASV insertion; details: EGFR exon 20 ASV Ins V769_D770, cell viability, read-out: BaF3 ASV IC50
T1 construct: expressed in transfected cells; host or cells: Ba/F3 (murine pro-B cells), retroviral transduction, puromycin selection, IL3-independent pool

[2] = target: T2, pEGFR in Ba/F3 cells expressing EGFR exon 20 NPG Ins D770_N771 (Homo sapiens, UniProt P00533, INS770NPG); experiment: Inhibitor activity on EGFR phosphorylation (pEGFR AlphaLISA, 2 h), Ba/F3 EGFR exon 20 NPG insertion; details: Ba/F3 EGFR exon 20 NPG Ins D770_N771
T2 construct: expressed in transfected cells; host or cells: Ba/F3 (murine pro-B cells), retroviral transduction, puromycin selection, IL3-independent pool

[3] = target: T3, pEGFR in Ba/F3 cells expressing EGFR exon 20 ASV Ins V769_D770 (Homo sapiens, UniProt P00533, INS769ASV); experiment: Inhibitor activity on EGFR phosphorylation (pEGFR AlphaLISA, 2 h), Ba/F3 EGFR exon 20 ASV insertion; details: Ba/F3 EGFR exon 20 ASV Ins V769_D770
T3 construct: expressed in transfected cells; host or cells: Ba/F3 (murine pro-B cells), retroviral transduction, puromycin selection, IL3-independent pool

[4] = target: T4, Ba/F3 cells with EGFR exon 20 NPG Ins D770_N771 (Homo sapiens, UniProt P00533, INS770NPG); experiment: EGFR activity: Ba/F3 cell viability (CellTiter-Glo, 72 h), EGFR exon 20 NPG insertion; details: EGFR exon 20 NPG Ins D770_N771, cell viability, read-out: BaF3 NPG IC50
T4 construct: expressed in transfected cells; host or cells: Ba/F3 (murine pro-B cells), retroviral transduction, puromycin selection, IL3-independent pool

Ba/F3 cells with EGFR WT = target: T5, Ba/F3 cells with EGFR WT (Homo sapiens, UniProt P00533); experiment: EGFR activity: Ba/F3 cell viability (CellTiter-Glo, 72 h), EGFR WT; details: read-out: BaF3 WT IC50
T5 construct: expressed in transfected cells; host or cells: Ba/F3 (murine pro-B cells), retroviral transduction, puromycin selection, maintained with EGF

pEGFR in CUTO14 cells = target: T6, pEGFR in CUTO14 cells (Homo sapiens, UniProt P00533, DUP767-769); experiment: Inhibitor activity on EGFR phosphorylation (pEGFR AlphaLISA, 2 h), CUTO14 cells
T6 construct: endogenous in cells; host or cells: CUTO14 cells
Description: CUTO14 cells were obtained from Dr. Robert C. Doebele at the University of Colorado.
Shake 350 rpm for 1 hr in the dark • 3.4 Prepare donor mix under low light conditions prior to use. Dispense 5 μL of donor mix to all the wells. Mix well on the shaker, seal and wrap in aluminum foil and incubate 1.5 hrs at room temperature in the dark • 3.5 Transfer 18.5 μL mixture to OptiPlate 384, and read using an Envision.

T5 sequence (P00533 25-1210): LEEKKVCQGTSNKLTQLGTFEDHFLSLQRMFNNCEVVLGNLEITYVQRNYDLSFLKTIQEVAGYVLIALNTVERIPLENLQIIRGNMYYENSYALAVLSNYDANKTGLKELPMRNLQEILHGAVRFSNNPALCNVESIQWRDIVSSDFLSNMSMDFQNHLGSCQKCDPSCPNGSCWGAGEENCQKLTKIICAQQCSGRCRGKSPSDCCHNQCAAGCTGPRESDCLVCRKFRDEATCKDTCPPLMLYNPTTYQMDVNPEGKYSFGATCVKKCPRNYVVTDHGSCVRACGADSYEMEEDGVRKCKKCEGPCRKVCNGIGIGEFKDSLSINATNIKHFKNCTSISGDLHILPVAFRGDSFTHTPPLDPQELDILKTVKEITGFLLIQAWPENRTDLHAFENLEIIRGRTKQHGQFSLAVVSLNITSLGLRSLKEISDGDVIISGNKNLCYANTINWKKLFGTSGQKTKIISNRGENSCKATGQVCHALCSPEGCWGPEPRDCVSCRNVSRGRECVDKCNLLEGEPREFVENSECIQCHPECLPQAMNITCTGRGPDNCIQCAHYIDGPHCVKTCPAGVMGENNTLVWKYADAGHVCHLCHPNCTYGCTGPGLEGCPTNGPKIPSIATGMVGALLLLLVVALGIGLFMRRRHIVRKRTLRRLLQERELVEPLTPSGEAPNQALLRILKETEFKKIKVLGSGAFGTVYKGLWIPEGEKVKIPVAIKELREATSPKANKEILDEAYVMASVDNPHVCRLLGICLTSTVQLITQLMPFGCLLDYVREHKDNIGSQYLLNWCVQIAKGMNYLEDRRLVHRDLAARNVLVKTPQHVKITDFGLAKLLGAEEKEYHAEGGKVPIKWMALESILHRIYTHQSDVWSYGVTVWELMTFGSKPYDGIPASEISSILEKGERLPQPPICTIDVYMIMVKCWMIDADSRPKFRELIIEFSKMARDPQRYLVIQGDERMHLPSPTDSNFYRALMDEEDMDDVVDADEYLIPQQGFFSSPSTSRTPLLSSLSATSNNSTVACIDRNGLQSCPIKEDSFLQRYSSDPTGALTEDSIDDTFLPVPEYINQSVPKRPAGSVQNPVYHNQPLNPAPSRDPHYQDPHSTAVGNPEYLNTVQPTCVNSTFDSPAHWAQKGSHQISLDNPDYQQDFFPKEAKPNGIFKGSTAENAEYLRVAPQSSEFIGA
T6 sequence (P00533 with tags, fused parts or gaps DUP767-769): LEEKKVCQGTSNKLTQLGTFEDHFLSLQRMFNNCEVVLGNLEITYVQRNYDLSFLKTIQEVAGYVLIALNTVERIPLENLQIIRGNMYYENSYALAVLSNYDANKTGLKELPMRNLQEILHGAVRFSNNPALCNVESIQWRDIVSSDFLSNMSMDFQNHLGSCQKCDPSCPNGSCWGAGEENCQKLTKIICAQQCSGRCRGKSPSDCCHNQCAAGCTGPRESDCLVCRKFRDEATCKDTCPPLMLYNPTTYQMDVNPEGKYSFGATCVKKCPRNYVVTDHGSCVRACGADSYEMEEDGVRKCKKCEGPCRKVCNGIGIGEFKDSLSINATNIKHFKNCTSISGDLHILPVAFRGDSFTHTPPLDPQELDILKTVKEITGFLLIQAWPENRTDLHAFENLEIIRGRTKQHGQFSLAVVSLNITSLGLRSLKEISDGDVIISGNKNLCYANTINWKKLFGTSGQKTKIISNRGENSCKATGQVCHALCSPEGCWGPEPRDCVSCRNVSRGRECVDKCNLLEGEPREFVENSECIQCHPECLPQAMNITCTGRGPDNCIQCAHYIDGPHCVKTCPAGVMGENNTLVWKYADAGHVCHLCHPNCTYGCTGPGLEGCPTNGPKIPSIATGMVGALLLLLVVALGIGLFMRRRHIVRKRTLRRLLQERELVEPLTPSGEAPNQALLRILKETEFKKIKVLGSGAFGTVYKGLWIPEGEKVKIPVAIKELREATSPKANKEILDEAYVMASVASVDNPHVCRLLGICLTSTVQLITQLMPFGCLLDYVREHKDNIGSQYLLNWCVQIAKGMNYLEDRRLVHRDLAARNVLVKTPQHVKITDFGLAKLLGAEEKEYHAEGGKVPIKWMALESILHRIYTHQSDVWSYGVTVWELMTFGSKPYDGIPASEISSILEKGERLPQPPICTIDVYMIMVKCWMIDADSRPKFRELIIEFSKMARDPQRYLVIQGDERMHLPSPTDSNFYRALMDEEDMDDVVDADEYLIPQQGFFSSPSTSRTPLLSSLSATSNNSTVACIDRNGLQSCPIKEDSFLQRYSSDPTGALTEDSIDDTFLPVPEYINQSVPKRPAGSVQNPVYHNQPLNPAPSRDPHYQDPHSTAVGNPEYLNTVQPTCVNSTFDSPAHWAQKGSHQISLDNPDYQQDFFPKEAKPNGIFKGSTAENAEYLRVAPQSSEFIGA
T3 sequence (P00533 with tags, fused parts or gaps INS769ASV): as the sequence (P00533 with tags, fused parts or gaps DUP767-769) above
T1 sequence (P00533 with tags, fused parts or gaps INS769ASV): as the sequence (P00533 with tags, fused parts or gaps DUP767-769) above

IC50 [2] [nM] | IC50 [3] [nM] | IC50 (pEGFR in CUTO14 cells) [nM] | SMILES | IC50 [1] [nM] | IC50 [4] [nM] | IC50 (Ba/F3 cells with EGFR WT) [nM]
< 100 | 100 to 1000 | – | COc1c(F)cccc1Nc1c(-c2ccncc2OCC2CCn3ccnc32)[nH]c2c1C(=O)NCC2 (stereo not drawn) [Compound 124, 3-[(3-fluoro-2-methoxyphenyl)amino]-2-(3-[5H,6H,7H-pyrrolo[1,2-a]imidazol-7-ylmethoxy]pyridin-4-yl)-1H,5H,6H,7H-pyrrolo[3,2-c]pyridin-4-one] | 100 to 1000 | > 1000 | > 1000
– | > 1000 | – | COc1c(F)cccc1Nc1c(-c2ccncc2OCc2csc3nccn23)[nH]c2c1C(=O)NCC2 [Compound 130, 3-[(3-fluoro-2-methoxyphenyl)amino]-2-(3-[imidazo[2,1-b][1,3]thiazol-3-ylmethoxy]pyridin-4-yl)-1H,5H,6H,7H-pyrrolo[3,2-c]pyridin-4-one] | > 1000 | > 1000 | > 1000
< 100 | – | – | COc1c(Cl)cccc1Nc1c(-c2ccncc2OC[C@H]2CCCN2S(C)(=O)=O)[nH]c2c1C(=O)NCC2 [Compound 142b, 3-[(3-chloro-2-methoxyphenyl)amino]-2-(3-[[(2R)-1-methanesulfonylpyrrolidin-2-yl]methoxy]pyridin-4-yl)-1H,5H,6H,7H-pyrrolo[3,2-c]pyridin-4-one] | < 100 | < 100 | 100 to 1000
– | < 100 | – | COc1c(F)cccc1Nc1c(-c2ccncc2OCc2cnc3n2CCC3)[nH]c2c1C(=O)NCC2 [Compound 150, 2-(3-((6,7-dihydro-5H-pyrrolo[1,2-a]imidazol-3-yl)methoxy)pyridin-4-yl)-3-((3-fluoro-2-methoxyphenyl)amino)-1,5,6,7-tetrahydro-4H-pyrrolo[3,2-c]pyridin-4-one] | 100 to 1000 | > 1000 | > 1000
< 100 | – | – | COc1c(Cl)cccc1Nc1c(-c2ccncc2C#CC(C)(C)OC)[nH]c2c1C(=O)NCC2 [Compound 188, 3-((3-chloro-2-methoxyphenyl)amino)-2-(3-(3-methoxy-3-methylbut-1-yn-1-yl)pyridin-4-yl)-1,5,6,7-tetrahydro-4H-pyrrolo[3,2-c]pyridin-4-one] | 100 to 1000 | < 100 | < 100
< 100 | – | – | C=CC(=O)N1CCCC[C@@H]1COc1cnccc1-c1[nH]c2c(c1Nc1cccc(F)c1C)C(=O)NCC2 [Compound 468, 3-[(3-fluoro-2-methylphenyl)amino]-2-(3-[[(2R)-1-(prop-2-enoyl)piperidin-2-yl]methoxy]pyridin-4-yl)-1H,5H,6H,7H-pyrrolo[3,2-c]pyridin-4-one] | 100 to 1000 | 100 to 1000 | 100 to 1000
100 to 1000 | – | – | CCC(=O)N1CCC[C@@H]1COc1cnccc1-c1[nH]c2c(c1Nc1cccc(Cl)c1OC)C(=O)NCC2 [Compound 470, 3-[(3-chloro-2-methoxyphenyl)amino]-2-(3-[[(2R)-1-propanoylpyrrolidin-2-yl]methoxy]pyridin-4-yl)-1H,5H,6H,7H-pyrrolo[3,2-c]pyridin-4-one] | > 1000 | > 1000 | > 1000
< 100 | – | – | COc1c(F)cccc1Nc1c(-c2ccncc2OCc2ccccn2)[nH]c2c1C(=O)NCC2 [Compound 472, 3-[(3-fluoro-2-methoxyphenyl)amino]-2-[3-(pyridin-2-ylmethoxy)pyridin-4-yl]-1H,5H,6H,7H-pyrrolo[3,2-c]pyridin-4-one] | < 100 | < 100 | < 100
– | < 100 | – | COc1c(F)cccc1Nc1c(-c2ccncc2OCc2ncco2)[nH]c2c1C(=O)NCC2 [Compound 474, 3-[(3-fluoro-2-methoxyphenyl)amino]-2-[3-(1,3-oxazol-2-ylmethoxy)pyridin-4-yl]-1H,5H,6H,7H-pyrrolo[3,2-c]pyridin-4-one] | 100 to 1000 | > 1000 | 100 to 1000
< 100 | < 100 | – | COc1c(F)cccc1Nc1c(-c2ccncc2OCc2cccn3ccnc23)[nH]c2c1C(=O)NCC2 [Compound 475, 3-[(3-fluoro-2-methoxyphenyl)amino]-2-(3-[imidazo[1,2-a]pyridin-8-ylmethoxy]pyridin-4-yl)-1H,5H,6H,7H-pyrrolo[3,2-c]pyridin-4-one] | 100 to 1000 | 100 to 1000 | 100 to 1000
< 100 | – | – | COc1cccnc1COc1cnccc1-c1[nH]c2c(c1Nc1cccc(F)c1OC)C(=O)NCC2 [Compound 476, 3-[(3-fluoro-2-methoxyphenyl)amino]-2-[3-[(3-methoxypyridin-2-yl)methoxy]pyridin-4-yl]-1H,5H,6H,7H-pyrrolo[3,2-c]pyridin-4-one] | < 100 | < 100 | 100 to 1000
< 100 | < 100 | – | COc1c(F)cccc1Nc1c(-c2ccncc2OCc2ncc(C)cn2)[nH]c2c1C(=O)NCC2 [Compound 477, 3-[(3-fluoro-2-methoxyphenyl)amino]-2-[3-[(5-methylpyrimidin-2-yl)methoxy]pyridin-4-yl]-1H,5H,6H,7H-pyrrolo[3,2-c]pyridin-4-one] | – | < 100 | < 100
– | < 100 | – | COc1c(F)cccc1Nc1c(-c2ccncc2OCc2cn3ccccc3n2)[nH]c2c1C(=O)NCC2 [Compound 481, 3-[(3-fluoro-2-methoxyphenyl)amino]-2-(3-[imidazo[1,2-a]pyridin-2-ylmethoxy]pyridin-4-yl)-1H,5H,6H,7H-pyrrolo[3,2-c]pyridin-4-one] | < 100 | > 1000 | 100 to 1000
< 100 | – | – | C=CC(=O)N1CCC[C@H]1COc1cnccc1-c1[nH]c2c(c1Nc1cccc(F)c1CC)C(=O)NCC2 [compound 211, 3-[(2-ethyl-3-fluorophenyl)amino]-2-(3-{[(2S)-1-(prop-2-enoyl)pyrrolidin-2-yl]methoxy}pyridin-4-yl)-1H,5H,6H,7H-pyrrolo[3,2-c] pyridin-4-one] | < 100 | < 100 | < 100
< 100 | – | – | C=C(F)C(=O)N1CC[C@@H]1COc1cnccc1-c1[nH]c2c(c1Nc1cccc(Cl)c1OC)C(=O)NCC2 [compound 226, 3-[(3-chloro-2-methoxyphenyl)amino]-2-(3-{[(2R)-1-(2-fluoroprop-2-enoyl)azetidin-2-yl]methoxy}pyridin-4-yl)-1H,5H,6H,7H-pyrrolo[3,2-c]pyridin-4-one] | < 100 | < 100 | 100 to 1000
< 100 | – | < 100 | CC#CC(=O)N1CC[C@@H]1COc1cnccc1-c1[nH]c2c(c1Nc1cccc(Cl)c1OC)C(=O)NCC2 [compound 227] | < 100 | < 100 | 100 to 1000
< 100 | – | < 100 | C=CC(=O)N1CCC[C@]1(C)C#Cc1cnccc1-c1[nH]c2c(c1Nc1cccc(F)c1OC)C(=O)NCC2 [compound 245, 3-[(3-fluoro-2-methoxyphenyl)amino]-2-(3-{2-[(2R)-2-methyl-1-(prop-2-enoyl)pyrrolidin-2-yl]ethynyl}pyridin-4-yl)-1H,5H,6H,7H-pyrrolo[3,2-c]pyridin-4-one] | – | – | –
< 100 | – | < 100 | C=CC(=O)NC(C)(C)C#Cc1cnccc1-c1[nH]c2c(c1Nc1cccc(F)c1OC)C(=O)NCC2 [compound 258, N-[4-(4-{3-[(3-fluoro-2-methoxyphenyl)amino]-4-oxo-1H,5H,6H,7H-pyrrolo[3,2-c]pyridin-2-yl}pyridin-3-yl)-2-methylbut-3-yn-2-yl]prop-2-enamide] | – | – | –
– | < 100 | – | COc1c(Cl)cccc1Nc1c(-c2ccncc2C#CC2CC2)[nH]c2c1C(=O)NCC2 [compound 488] | < 100 | < 100 | 100 to 1000
– | < 100 | – | COc1c(Cl)cccc1Nc1c(-c2ccncc2C#CC2(C)COC2)[nH]c2c1C(=O)NCC2 [compound 490] | 100 to 1000 | – | > 1000
< 100 | – | < 100 | C=CC(=O)NC(C)(C)C#Cc1cnccc1-c1[nH]c2c(c1Nc1cccc(Cl)c1OC)C(=O)NCC2 [compound 492, N-[4-(4-{3-[(3-chloro-2-methoxyphenyl)amino]-4-oxo-1H,5H,6H,7H-pyrrolo[3,2-c]pyridin-2-yl}pyridin-3-yl)-2-methylbut-3-yn-2-yl]prop-2-enamide] | – | – | –
< 100 | – | – | COc1c(Cl)cccc1Nc1c(-c2ccncc2C#C[C@@H]2CN(C)CCO2)[nH]c2c1C(=O)NCC2 [compound 496] | < 100 | < 100 | > 1000
